# Experimental data from PMC10275055, “Preventing recurrence in Sonic Hedgehog Subgroup Medulloblastoma using the OLIG2 inhibitor CT-179” (Research Square, 2023).
# Target: T1, OLIG2 dimerization (Homo sapiens, UniProt Q13516)
# T1 construct: expressed in transfected cells; host or cells: HEK293
# T1 sequence (Q13516 1-323): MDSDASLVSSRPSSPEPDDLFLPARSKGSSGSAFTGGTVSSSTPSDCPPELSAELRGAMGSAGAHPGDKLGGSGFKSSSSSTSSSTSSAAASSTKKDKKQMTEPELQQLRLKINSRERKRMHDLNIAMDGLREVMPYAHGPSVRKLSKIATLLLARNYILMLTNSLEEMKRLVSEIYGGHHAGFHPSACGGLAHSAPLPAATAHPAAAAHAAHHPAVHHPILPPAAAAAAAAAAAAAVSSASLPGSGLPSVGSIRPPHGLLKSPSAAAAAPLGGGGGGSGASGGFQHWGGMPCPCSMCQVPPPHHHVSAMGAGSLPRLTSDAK
# Assay: FCCS of OLIG2 dimerization in live HEK293 cells co-transfected with OLIG2-eGFP and OLIG2-Tomato
# Assay type: cell-based
# Protocol: HEK293 cells were maintained in a humidified atmosphere containing 5 % CO2 at 37 °C in Dulbecco’s Modified Eagle Medium supplemented with 10 % fetal bovine serum (FBS) and antibiotics (100 U/mL penicillin and 100 μg/mL streptomycin). One day before the transfection, HEK293 cells were split into Lab-Tek 8-well chambered Coverglass (Thermo Fisher Scientific). HEK293 cells on and 8-well chamber were transfected with plasmid DNA (OLIG2-eGFP and OLIG2-Tomato; or with eGFP and Tomato as negative control) using Lipofectamine 2000 (Thermo Fisher Scientific). After the transfection, HEK293 cells were cultured for 24 h at 37 °C. […]
# CLSM imaging and FCCS measurements were performed using an LSM880 microscope system (Carl Zeiss, Germany) equipped with an Ar-ion laser with three lines: 458 nm, 488 nm and 514 nm, 543 nm He-Ne laser, and a water immersion objective lens (C-Apochromat, 40×, 1.2 N.A., Corr, Carl Zeiss), and a gallium arsenide phosphide (GaAsP) spectral array detector and photomultiplier tube (PMT) spectral array detector. eGFP and Tomato were excited using 488 nm laser and 543 nm laser, respectively. […] The emitted fluorescence was split by a diffraction grating and detected using a GaAsP detector (wavelength range 496–534 nm for eGFP) and a PMT detector (wavelength range 580–758 nm for Tomato). […]
# Data acquired by FCCS was analyzed using the ZEN software (Carl Zeiss). […]
smiles,measurement,setting,value
Cc1cc(NCCCN(C)C)nc(NC(=O)Nc2ccc(Cl)c(Cl)c2)n1 [CT-179],relative cross-correlation amplitude (RCA),1 μM for one hour,significantly decreased
same,"allosteric factor, nallo",best fit of RCA dose-response curve,−0.66
